Assay results from patent publication US20230210825A1, “METHODS AND COMPOSITIONS FOR TREATING SUBJECTS WITH METABOLIC DISORDERS AND CORONAVIRUS INFECTIONS” (CIRIUS THERAPEUTICS, INC., priority 2020, published 2023).

What was measured:
[1] = system: cell functions and key regulatory proteins; assay: Impact of MSDC-0602K vs overnutrition on cell functions and key regulatory proteins (Table 1)
[2] = system: mice on high trans-fat, fructose, cholesterol (HTF-C) diet; assay: Serum miRNA sequencing in HTF-C diet mice; format: in vivo; conditions: HTF-C diet containing 331 ppm MSDC-0602K after 4 or 16 weeks of plain HTF-C diet
Procedure: To begin evaluating the exosome cargo of MSDC-0602K-treated mice, WT mice were fed with either a low fat (LF) control diet (Research Diets D09100304) or high trans-fat, fructose, cholesterol (HTF-C) diet composed of 40% trans-fat, 20% fructose, 2% cholesterol (Research Diets D09100301). A subset of mice was fed plain HTF-C diet for 4 or 16 weeks, then switched to HTF-C diet that contained 331 ppm MSDC-0602K.
Total RNA was isolated from 400 μL of serum and small RNA sequencing was performed by adapter ligation, cDNA synthesis and size selection of 145-160 base pairs. Sequencing was then performed on an Illumina HiSeq3000.

[3] = system: mice fed a diet enriched in trans fat, cholesterol and fructose; assay: Trans fat, cholesterol and fructose diet for 19 weeks: hepatic damage and fibrosis; format: in vivo
Procedure: Mice were fed a diet enriched in trans fat, cholesterol and fructose for 19 weeks to induce hepatic damage and metabolic dysfunction, which was assessed by histological changes in the NAS and fibrosis, measured by trichrome staining for collagen. MSDC-0602K (30 mg/kg) was given at either four weeks into the treatment or 16 weeks into the treatment as compared to the vehicle treated mice who were also on the modified diet. The results of mice who were kept on the normal diet are included for comparison. […] The signals for activation of the stellate cells and fibrosis are attenuated by treatment of the mice or isolated hepatocytes with MSDC-0602K.

[4] = system: subjects with biopsy proven non-alcoholic steatohepatitis (NASH) with fibrosis and no cirrhosis; assay: EMMINENCE Phase 2b clinical trial; format: in vivo, human; conditions: for Peripheral Edema Present at Baseline / Isoleucine Baseline / Leucine Baseline / TotalBCAA Baseline / Valine Baseline / Mean HbA1c at Baseline: before treatment; for Isoleucine Visit 7 / Leucine Visit 7 / TotalBCAA Visit 7 / Valine Visit 7: 12-month endpoint; for HbA1c Placebo-corrected change from Baseline at 6 months: ▾ (decrease)
Procedure: An interim analysis of the EMMINENCE Phase 2b trial was conducted in the first 328 subjects who reached their six-month follow-up visit. This study is a randomized, double-blinded study of three doses (62.5 mg 125 mg, or 250 mg) of MSDC-0602K or placebo given orally once daily to subjects with biopsy proven non-alcoholic steatohepatitis (NASH; a non-limiting example of a metabolic disorder) with fibrosis and no cirrhosis.
The subjects included in this interim analysis had significant liver disease, as established by liver biopsy, with an average NAS at baseline of 5.3. […] Overall, baseline characteristics were well-balanced across treatment groups.

[5] = system: subjects with biopsy proven non-alcoholic steatohepatitis (NASH) with fibrosis and no cirrhosis; assay: EMMINENCE Phase 2b clinical trial; format: in vivo, human
carbonyl reductase = assay: Metabolism to the hydroxy metabolite
[6] = system: diet-induced obese (60% HF diet) WT (fl/fl) and LS-MPC2−/− mice; assay: Single dose in diet-induced obese WT and LS-MPC2−/− mice (GTT, plasma insulin, ALT, liver qPCR); conditions: for glucose tolerance (GTT): 20 h after a single gavage of 30 mg/kg, vs vehicle
[7] = 62.5 mg, N = 99, mean, baseline to 12-month endpoint
[8] = 125 mg, mean, baseline to 12-month endpoint
[9] = 250 mg, N = 101, mean, baseline to 12-month endpoint
[10] = 1-year Phase 2b dose-ranging trial, fatty liver disease with or without type 2 diabetes
[11] = all MSDC-0602K dose cohorts, interim analysis
[12] = all subjects, six months, 125 mg and 250 mg doses

SMILES: COc1cccc(C(=O)COc2ccc(CC3SC(=O)NC3=O)cc2)c1 (stereo not shown) [MSDC-0602K]
- Fatty acid oxidation (burning fat) [1]: Increased
- HIF1α (transcription factor responding to oxygen) [1]: Decreased
- Inflammation (ballooning due to injury) [1]: Decreased
- Insulin sensitivity (cellular response to insulin) [1]: Increased
- PPARγ, PPARα (transcription factors regulating fat metabolism and inflammation) [1]: Increased
- SREBP (transcription factor regulating fat synthesis) [1]: Decreased
- de novo lipid synthesis (making new fat) [1]: Decreased
- mTORC1 (important nutrient sensor) [1]: Decreased
- serum miRNAs altered by HTF-C diet [2]: largely corrected
- signals for activation of the stellate cells and fibrosis ([3]; 30 mg/kg from week 4 or week 16 of a 19-week diet, mice or isolated hepatocytes): attenuated
- high fat, high cholesterol, high sugar diet-induced metabolic dysfunction ([3]; multiple animal models): protect against
- Peripheral Edema Present at 6 months ([4]; 62.5 mg (n = 81)): 7.80%
- Peripheral Edema Present at Baseline ([4]; 62.5 mg group (n = 81)): 13.60%
- Isoleucine Visit 7 ([4]; 62.5 mg, N = 99, mean): 61.47
- Leucine Visit 7 ([4]; 62.5 mg, N = 99, mean): 114.63
- TotalBCAA Visit 7 ([4]; 62.5 mg, N = 99, mean): 397.39
- Valine Visit 7 ([4]; 62.5 mg, N = 99, mean): 221.29
- Isoleucine Change from Baseline [4, 7]: −6.58
- TotalBCAA Change from Baseline [4, 7]: −30.07
- Valine Change from Baseline [4, 7]: −16.74
- Isoleucine Baseline ([4]; 62.5 mg, N = 99, mean): 69.03
- Leucine Baseline ([4]; 62.5 mg, N = 99, mean): 121.80
- TotalBCAA Baseline ([4]; 62.5 mg, N = 99, mean): 430.03
- Valine Baseline ([4]; 62.5 mg, N = 99, mean): 239.20
- Peripheral Edema Present at 6 months ([4]; 125 mg (n = 84)): 13.50%
- Peripheral Edema Present at Baseline ([4]; 125 mg group (n = 84)): 13.10%
- Isoleucine Visit 7 ([4]; 125 mg, mean): 60.06
- Leucine Visit 7 ([4]; 125 mg, mean): 115.95
- TotalBCAA Visit 7 ([4]; 125 mg, mean): 399.74
- Valine Visit 7 ([4]; 125 mg, mean): 223.73
- Isoleucine Change from Baseline [4, 8]: −2.92
- Leucine Change from Baseline [4, 8]: −0.60
- TotalBCAA Change from Baseline [4, 8]: −9.61
- Isoleucine Baseline ([4]; 125 mg, mean): 62.55
- Leucine Baseline ([4]; 125 mg, mean): 115.62
- TotalBCAA Baseline ([4]; 125 mg, mean): 408.60
- Valine Baseline ([4]; 125 mg, mean): 230.43
- Peripheral Edema Present at 6 months ([4]; 250 mg (n = 85)): 11.10%
- Peripheral Edema Present at Baseline ([4]; 250 mg group (n = 85)): 9.40%
- Valine Visit 7 ([4]; 250 mg, N = 101, mean): 212.52
- Isoleucine Change from Baseline [4, 9]: −10.10
- Valine Change from Baseline [4, 9]: −17.15
- Isoleucine Baseline ([4]; 250 mg, N = 101, mean): 66.92
- Leucine Baseline ([4]; 250 mg, N = 101, mean): 121.54
- Valine Baseline ([4]; 250 mg, N = 101, mean): 232.15
- edema ([4]; 1-year Phase 2b dose-ranging trial): without precipitation of edema
- glycemic control [4, 10]: improved glycemic control
- insulin resistance [4, 10]: reduced insulin resistance
- Mean HbA1c at Baseline ([4]; Type II diabetes subjects, 62.5 mg group): 7.09%
- HbA1c Placebo-corrected change from Baseline at 6 months ([4]; Type II diabetes subjects, 62.5 mg, p 0.022): ▾0.37
- Mean HbA1c at Baseline ([4]; Type II diabetes subjects, 125 mg group): 6.90%
- HbA1c Placebo-corrected change from Baseline at 6 months ([4]; Type II diabetes subjects, 125 mg, p 0.001): ▾0.55
- Mean HbA1c at Baseline ([4]; Type II diabetes subjects, 250 mg group): 6.97%
- HbA1c Placebo-corrected change from Baseline at 6 months ([4]; Type II diabetes subjects, 250 mg, p 0.006): ▾0.45
- HbA1c ([4]; Type II diabetes subjects, all doses): statistically significant improvement
- HOMA-IR [4, 11]: Statistically significant reductions
- HbA1c [4, 11]: Statistically significant reductions
- HOMA-IR [4, 12]: statistically significant improvements
- HbA1c [4, 12]: statistically significant improvements
- fasting glucose [4, 12]: statistically significant improvements
- insulin levels [4, 12]: statistically significant improvements
- Adiponectin ([4]; all treatment cohorts): increased significantly in all treatment cohorts in a dose dependent manner
- additional biomarkers of fibrosis such as hematocrit ([4]; interim analysis): trends for improvement
- alkaline phosphatase ([4]; interim analysis, six months): Improvements
- bilirubin ([4]; interim analysis, six months): Improvements
- gamma GT ([4]; interim analysis, six months): Improvements
- lipids ([4]; overall, interim analysis): neutral effect
- liver enzymes, including ALT and AST ([4]; six months compared to baseline, interim analysis): statistically significant reductions
- C-Reactive Protein levels ([4]; two lowest doses): decrease
- Leucine Change from Baseline [5, 7]: −6.74
- Valine Change from Baseline [5, 8]: −6.08
- Isoleucine Visit 7 ([5]; 250 mg, N = 101, mean, 12-month endpoint): 56.15
- Leucine Change from Baseline [5, 9]: −10.55
- TotalBCAA Change from Baseline [5, 9]: −37.80
- Branched Chain Amino Acids (BCAA) ([5]; baseline to 12-month endpoint (Visit 7)): reduced
- metabolism (carbonyl reductase): metabolized to its hydroxy metabolite (MSDC-0597) by a carbonyl reductase
- glucose tolerance (GTT) ([6]; LS-MPC2−/− mice): no improvement in glucose tolerance
- plasma ALT and liver injury gene expression in LS-MPC2−/− mice ([6]; LS-MPC2−/− mice, acute treatment): refractory to the beneficial effects
- glucose tolerance (GTT) ([6]; WT mice): improved glucose tolerance
- plasma ALT concentrations ([6]; WT mice, single dose (FIG. 8A)): decreased plasma ALT concentrations
- gene expression for hepatic stellate cell activation and fibrotic scar formation ([6]; WT mice, single dose (FIG. 8B)): decreased gene expression
- plasma insulin values ([6]; both WT and LS-MPC2−/− mice, single dose 30 mg/kg): decreased
